Read-outs that look alike come from different tables or passages of the source. Peptide text beside a SMILES is read from it.

Holding throughout (assay type): cell-based
One test has as its target T1, human GCG R (Homo sapiens, UniProt P47871).
T1 construct: expressed in transfected cells
The test can be described thus: cAMP induction in HEK293 cells expressing human GCG R (AlphaScreen cAMP kit).

The target in another test is T2, human GLP-1 R (Homo sapiens, UniProt P43220).
T2 construct: expressed in transfected cells
T2 sequence (P43220 24-463): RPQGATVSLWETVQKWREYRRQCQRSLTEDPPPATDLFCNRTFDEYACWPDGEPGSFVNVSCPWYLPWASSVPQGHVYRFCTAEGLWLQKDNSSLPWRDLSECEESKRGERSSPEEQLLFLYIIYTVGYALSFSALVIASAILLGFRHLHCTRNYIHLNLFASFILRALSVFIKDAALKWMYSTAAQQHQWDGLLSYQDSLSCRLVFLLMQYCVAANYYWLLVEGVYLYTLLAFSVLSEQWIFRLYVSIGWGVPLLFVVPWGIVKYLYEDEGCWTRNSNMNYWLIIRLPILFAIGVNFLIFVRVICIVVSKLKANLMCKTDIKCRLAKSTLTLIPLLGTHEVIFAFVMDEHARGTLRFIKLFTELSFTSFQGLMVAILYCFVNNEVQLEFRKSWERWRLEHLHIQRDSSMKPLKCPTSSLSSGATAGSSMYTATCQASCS
Briefly: cAMP induction in HEK293 cells expressing human GLP-1 R (AlphaScreen cAMP kit). Conditions: Table 2; average EC50, cAMP, HEK293 cells expressing human GLP-1 R; read-out: GLP1 R (EC50 in nM).

Another test concerns the target T3, human GIP R (Homo sapiens, UniProt P48546).
T3 construct: expressed in transfected cells
T3 sequence (P48546 22-466): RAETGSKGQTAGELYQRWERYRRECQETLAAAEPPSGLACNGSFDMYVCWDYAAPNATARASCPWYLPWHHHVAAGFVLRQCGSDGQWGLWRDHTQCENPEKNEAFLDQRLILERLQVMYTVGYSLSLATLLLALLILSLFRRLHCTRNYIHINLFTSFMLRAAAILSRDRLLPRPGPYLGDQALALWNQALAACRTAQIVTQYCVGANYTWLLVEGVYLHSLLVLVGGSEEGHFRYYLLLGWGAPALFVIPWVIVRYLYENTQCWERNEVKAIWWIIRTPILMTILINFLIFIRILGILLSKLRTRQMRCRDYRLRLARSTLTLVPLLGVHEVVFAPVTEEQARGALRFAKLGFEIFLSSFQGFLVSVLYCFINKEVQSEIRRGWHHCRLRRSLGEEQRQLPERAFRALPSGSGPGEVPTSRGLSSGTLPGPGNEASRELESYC
Briefly: cAMP induction in HEK293 cells expressing human GIP R (AlphaScreen cAMP kit).

[1] abbreviates: GIP R (EC50 in nM), Table 2, average EC50, cAMP.

T1 sequence (P47871 26-477): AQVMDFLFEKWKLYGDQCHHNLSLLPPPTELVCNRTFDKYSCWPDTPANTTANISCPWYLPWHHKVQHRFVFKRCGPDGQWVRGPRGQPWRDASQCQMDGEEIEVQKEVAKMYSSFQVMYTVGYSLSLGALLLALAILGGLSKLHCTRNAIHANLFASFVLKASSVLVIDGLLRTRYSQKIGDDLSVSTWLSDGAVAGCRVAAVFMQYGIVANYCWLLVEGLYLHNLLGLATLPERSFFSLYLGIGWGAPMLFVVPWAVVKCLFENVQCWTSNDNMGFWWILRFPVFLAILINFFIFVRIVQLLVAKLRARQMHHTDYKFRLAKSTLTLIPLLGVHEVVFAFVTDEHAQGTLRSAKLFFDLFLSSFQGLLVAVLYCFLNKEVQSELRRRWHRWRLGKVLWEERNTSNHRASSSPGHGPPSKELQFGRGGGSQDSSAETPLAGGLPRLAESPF
Protocol for human GLP-1 R: Briefly, HEK293 cells expressing the human GIP R, GLP-1 R or GCG R (stable cell lines generated through transfection of the cDNA for human GIP R, GLP-1 R or GCG R and selection of stable clones) were seeded at 30,000 cells/well in 96-well microtiter plates coated with 0.01% poly-L-lysine, and grown for 1 day in culture in 200 μl growth medium (DMEM, 10% FCS, Penicillin (100 IU/ml), Streptomycin (100 μg/ml)). On the day of analysis, growth medium was removed and the cells were washed once with 150 μl Tyrode's buffer (Tyrode's Salts (9.6 g/l), 10 mM HEPES, pH 7.4). […] The Assay buffer was removed and cells are lysed in 80 μl Lysis buffer (0.1% w/v BSA, 5 mM HEPES, 0.3% v/v Tween-20) per well. From each well 10 μl of lysed cells were transferred to a 384-well plate and mixed with 15 μl bead-mix (1 Unit/15 μl anti-cAMP Acceptor Beads, 1 Unit/15 μl Donor Beads, and 1 Unit/15 μl Biotinylated cAMP in Assay Buffer). The plates were mixed and incubated in the dark for an hour at room temperature before measuring using an Envision™ plate reader (Perkin-Elmer).
The resulting cAMP curves were plotted as absolute cAMP concentrations (nM) over log (test compound concentration) and analyzed using the curve fitting program XLfit.
Parameters calculated to describe both the potency as well as the agonistic activity of each test compound on the receptors were:
EC50, a concentration resulting in a half-maximal elevation of cAMP levels, reflecting the potency of the test compound.

Consider `CCCCCCCCCCCCCCCC(=O)N[C@@H](CCC(=O)NCCCC[C@H](NC(=O)[C@H](CO)NC(=O)[C@H](CC(=O)O)NC(=O)[C@H](CC(C)C)NC(=O)[C@H](Cc1ccc(O)cc1)NC(=O)[C@H](CCCCN)NC(=O)[C@H](CO)NC(=O)[C@H](Cc1ccc(O)cc1)NC(=O)[C@H](CC(=O)O)NC(=O)[C@H](CO)NC(=O)[C@@H](NC(=O)[C@H](Cc1ccccc1)NC(=O)[C@@H](NC(=O)CNC(=O)[C@H](CCC(N)=O)NC(=O)C(C)(C)NC(=O)[C@@H](N)Cc1ccc(O)cc1)[C@@H](C)O)[C@@H](C)O)C(=O)N[C@@H](C)C(=O)N[C@@H](C)C(=O)N[C@@H](Cc1c[nH]cn1)C(=O)N[C@@H](CC(=O)O)C(=O)N[C@@H](Cc1ccccc1)C(=O)N[C@H](C(=O)N[C@@H](CCC(=O)O)C(=O)N[C@@H](Cc1c[nH]c2ccccc12)C(=O)N[C@@H](CC(C)C)C(=O)N[C@@H](CC(C)C)C(=O)N[C@@H](CO)C(=O)N[C@@H](C)C(N)=O)C(C)C)C(=O)O` [Compound 2] (HELM PEPTIDE1{Y.[Aib].Q.G.T.F.T.S.D.Y.S.K.Y.L.D.S.K.A.A.H.D.F.V.E.W.L.L.S.A.[am]}|PEPTIDE2{[CCCCCCCCCCCCCCCC(=O)[*:2]].[gGlu]}$PEPTIDE1,PEPTIDE2,17:R3-2:R2$$$V2.0), for which the EC50 was determined as 0.046 nM on human GCG R, 0.089 nM at human GLP-1 R and 0.35 nM at human GIP R (setting [1]).

As to `CC(C)C[C@H](NC(=O)[C@H](CC(C)C)NC(=O)[C@H](Cc1c[nH]c2ccccc12)NC(=O)[C@H](CCC(=O)O)NC(=O)[C@@H](NC(=O)[C@H](Cc1ccccc1)NC(=O)[C@H](CCC(=O)O)NC(=O)[C@H](CCCCN)NC(=O)[C@H](CCC(N)=O)NC(=O)[C@H](C)NC(=O)[C@H](CCCCN)NC(=O)[C@H](CCCCN)NC(=O)[C@H](CCC(=O)O)NC(=O)[C@H](CC(C)C)NC(=O)[C@H](Cc1ccc(O)cc1)NC(=O)[C@H](CCCCN)NC(=O)[C@H](CO)NC(=O)[C@H](Cc1ccc(O)cc1)NC(=O)[C@H](CC(=O)O)NC(=O)[C@H](CO)NC(=O)[C@@H](NC(=O)[C@H](Cc1ccccc1)NC(=O)[C@@H](NC(=O)CNC(=O)[C@H](CCC(N)=O)NC(=O)C(C)(C)NC(=O)[C@@H](N)Cc1ccc(O)cc1)[C@@H](C)O)[C@@H](C)O)C(C)C)C(=O)N[C@@H](CO)C(=O)N[C@@H](C)C(N)=O` [Compound 22] (HELM PEPTIDE1{Y.[Aib].Q.G.T.F.T.S.D.Y.S.K.Y.L.E.K.K.A.Q.K.E.F.V.E.W.L.L.S.A.[am]}$$$$V2.0), the EC50 at human GCG R is 0.76 nM; on human GLP-1 R, 0.028 nM; at human GIP R (setting [1]), 0.18 nM; on human GIP R (GIP R (EC50 in nM), Table 2b (most comprehensive data), average EC50, cAMP), 0.03 nM.

As to `CCCCCCCCCCCCCCCC(=O)N[C@@H](CCC(=O)NCCCC[C@H](NC(=O)[C@H](CCCCN)NC(=O)[C@H](CCC(=O)O)NC(=O)[C@H](CC(C)C)NC(=O)[C@H](Cc1ccc(O)cc1)NC(=O)[C@@H](NC(=O)[C@H](CO)NC(=O)[C@H](Cc1ccc(O)cc1)NC(=O)[C@H](CC(=O)O)NC(=O)[C@H](CO)NC(=O)[C@@H](NC(=O)[C@H](Cc1ccccc1)NC(=O)[C@@H](NC(=O)CNC(=O)[C@H](CCC(N)=O)NC(=O)C(C)(C)NC(=O)[C@@H](N)Cc1ccc(O)cc1)[C@@H](C)O)[C@@H](C)O)[C@@H](C)CC)C(=O)N[C@@H](C)C(=O)N[C@@H](C)C(=O)N[C@@H](CCCCN)C(=O)N[C@@H](CCC(=O)O)C(=O)N[C@@H](Cc1ccccc1)C(=O)N[C@H](C(=O)N[C@@H](CCC(=O)O)C(=O)N[C@@H](Cc1c[nH]c2ccccc12)C(=O)N[C@@H](CC(C)C)C(=O)N[C@@H](CC(C)C)C(=O)N[C@@H](CO)C(=O)N[C@@H](C)C(N)=O)C(C)C)C(=O)O` [Compound 23] (HELM PEPTIDE1{Y.[Aib].Q.G.T.F.T.S.D.Y.S.I.Y.L.E.K.K.A.A.K.E.F.V.E.W.L.L.S.A.[am]}|PEPTIDE2{[CCCCCCCCCCCCCCCC(=O)[*:2]].[gGlu]}$PEPTIDE1,PEPTIDE2,17:R3-2:R2$$$V2.0), the EC50 is 0.14 nM on human GCG R (Table 2, average EC50, cAMP, HEK293 cells expressing human GCG R, read-out: GCG R (EC50 in nM)); 0.11 nM at human GLP-1 R; 0.13 nM on human GIP R (Table 2, average EC50, cAMP, read-out: GIP R (EC50 in nM)).
